For assay [1], the system named is RS4;11 acute lymphoblastic leukemia cells. The assay is described as follows: Cell viability, tetrazolium-based MTS assay, RS4;11. As to conditions: Homo sapiens, RS4;11, 48 h, read-out: Anti-Cancer Activity EC50 (48 hr), RS4. How it is done:
(§1) Acute lymphoblastic leukemia cells (MOLT-4 and RS4;11) were incubated with increasing concentrations of Bcl-xL/Bcl-2 degraders for 48 h. Cell viability was measured by tetrazolium-based MTS assay.
In general terms: Tetrazolium dyes change colour on reduction, which living cells bring about.

In assay [2] the test system is MOLT-4 acute lymphoblastic leukemia cells. The assay is described as follows: Cell viability, tetrazolium-based MTS assay, MOLT-4. The following applies: Homo sapiens, MOLT-4, 48 h; read-out: Anti-Cancer Activity EC50 (48 hr), MOLT-4. The procedure: as §1
In another assay the test system is WI-38 NC. The assay is described as follows: Senolytic activity, cell viability (PrestoBlue HS), WI-38 NC. In kind it is cell-based. The following applies: for EC50: Homo sapiens, 72 h. How it is done:
WI-38 and HUVEC cells were incubated with increasing concentrations of degraders for 72 h. Cell viability was measured using PrestoBlue HS cell viability reagent.

Each structure is given as a SMILES string.

Regarding `C[C@@]1(CN2CCN(C(=O)CCCCCN3CCN(c4ccc5c(c4)CN(C4CCC(=O)NC4=O)C5=O)CC3)CC2)CCC(c2ccc(Cl)cc2)=C(CN2CCN(c3ccc(C(=O)NS(=O)(=O)c4ccc(N[C@H](CCN5CCCOCC5)CSc5ccccc5)c(S(=O)(=O)C(F)(F)F)c4)cc3)CC2)C1` (stereo partly drawn) [Compound 3, N-((4-(((R)-4-(1,4-oxazepan-4-yl)-1-(phenylthio)butan-2-yl)amino)-3-((trifluoromethyl)sulfonyl)phenyl)sulfonyl)-4-(4-(((4R)-4′-chloro-4-((4-(6-(4-(2-(2,6-dioxopiperidin-3-yl)-1-oxoisoindolin-5-yl)piperazin-1-yl)hexanoyl)piperazin-1-yl)methyl)-4-methyl-3,4,5,6-tetrahydro-[1,1′-biphenyl]-2-yl)methyl)piperazin-1-yl)benzamide], the concentration giving a half-maximal response (EC50) is less than 1 nM in assay [1], less than 1 nM in assay [2] and more than 10000 nM in the assay on WI-38 NC.
Consider `CC1(CN2CCN(C(=O)CN3CCN(C(=O)CNc4ccc5c(c4)C(=O)N(C4CCC(=O)NC4=O)C5=O)CC3)CC2)CCC(c2ccc(Cl)cc2)=C(CN2CCN(c3ccc(C(=O)NS(=O)(=O)c4ccc(N[C@H](CCN5CCOCC5)CSc5ccccc5)c(S(=O)(=O)C(F)(F)F)c4)cc3)CC2)C1` (stereo partly drawn) [Compound 17, 4-(4-((4′-chloro-4-((4-(2-(4-((2-(2,6-dioxopiperidin-3-yl)-1,3-dioxoisoindolin-5-yl)glycyl)piperazin-1-yl)acetyl)piperazin-1-yl)methyl)-4-methyl-3,4,5,6-tetrahydro-[1,1′-biphenyl]-2-yl)methyl)piperazin-1-yl)-N-((4-(((R)-4-morpholino-1-(phenylthio)butan-2-yl)amino)-3-((trifluoromethyl)sulfonyl)phenyl)sulfonyl)benzamide], for which the values for the EC50 (in assay [1]; in assay [2]; in the assay with WI-38 NC) were less than 1 nM, less than 1 nM and more than 10000 nM, respectively.
With `C[C@@]1(CN2CC(CN3CCN(c4ccc5c(c4)CN(C4CCC(=O)NC4=O)C5=O)CC3)C2)CCC(c2ccc(Cl)cc2)=C(CN2CCN(c3ccc(C(=O)NS(=O)(=O)c4ccc(N[C@H](CCN5CCCOCC5)CSc5ccccc5)c(S(=O)(=O)C(F)(F)F)c4)cc3)CC2)C1` (stereo partly drawn) [Compound 24, N-((4-(((R)-4-(1,4-oxazepan-4-yl)-1-(phenylthio)butan-2-yl)amino)-3-((trifluoromethyl)sulfonyl)phenyl)sulfonyl)-4-(4-(((4R)-4′-chloro-4-((3-((4-(2-(2,6-dioxopiperidin-3-yl)-1-oxoisoindolin-5-yl)piperazin-1-yl)methyl)azetidin-1-yl)methyl)-4-methyl-3,4,5,6-tetrahydro-[1,1′-biphenyl]-2-yl)methyl)piperazin-1-yl)benzamide], the results for the EC50 (in assay [1]; in assay [2]; in the assay on WI-38 NC) were less than 1 nM, 1 to 10 nM and more than 10000 nM, respectively.
As to `C[C@@]1(CN2CCN(CC#Cc3ccc4c(c3)CN(C3CCC(=O)NC3=O)C4=O)CC2)CCC(c2ccc(Cl)cc2)=C(CN2CCN(c3ccc(C(=O)NS(=O)(=O)c4ccc(N[C@H](CCN5CCCOCC5)CSc5ccccc5)c(S(=O)(=O)C(F)(F)F)c4)cc3)CC2)C1` (stereo partly drawn) [Compound 26, N-((4-(((R)-4-(1,4-oxazepan-4-yl)-1-(phenylthio)butan-2-yl)amino)-3-((trifluoromethyl)sulfonyl)phenyl)sulfonyl)-4-(4-(((4R)-4′-chloro-4-((4-(3-(2-(2,6-dioxopiperidin-3-yl)-1-oxoisoindolin-5-yl)prop-2-yn-1-yl)piperazin-1-yl)methyl)-4-methyl-3,4,5,6-tetrahydro-[1,1′-biphenyl]-2-yl)methyl)piperazin-1-yl)benzamide], the EC50 was 1 to 10 nM in assay [1], less than 1 nM in assay [2] and more than 10000 nM in the assay with WI-38 NC.
As for `C[C@@]1(CN2CCC(CC#Cc3ccc4c(c3)CN(C3CCC(=O)NC3=O)C4=O)CC2)CCC(c2ccc(Cl)cc2)=C(CN2CCN(c3ccc(C(=O)NS(=O)(=O)c4ccc(N[C@H](CCN5CCCOCC5)CSc5ccccc5)c(S(=O)(=O)C(F)(F)F)c4)cc3)CC2)C1` (stereo partly drawn) [Compound 29, N-((4-(((R)-4-(1,4-oxazepan-4-yl)-1-(phenylthio)butan-2-yl)amino)-3-((trifluoromethyl)sulfonyl)phenyl)sulfonyl)-4-(4-(((4R)-4′-chloro-4-((4-(3-(2-(2,6-dioxopiperidin-3-yl)-1-oxoisoindolin-5-yl)prop-2-yn-1-yl)piperidin-1-yl)methyl)-4-methyl-3,4,5,6-tetrahydro-[1,1′-biphenyl]-2-yl)methyl)piperazin-1-yl)benzamide], the values for the EC50 (in assay [1]; in assay [2]; in the assay on WI-38 NC) were less than 1 nM, 1 to 10 nM and more than 10000 nM, respectively.
With `CN(CC#Cc1ccc2c(c1)CN(C1CCC(=O)NC1=O)C2=O)C[C@]1(C)CCC(c2ccc(Cl)cc2)=C(CN2CCN(c3ccc(C(=O)NS(=O)(=O)c4ccc(N[C@H](CCN5CCCOCC5)CSc5ccccc5)c(S(=O)(=O)C(F)(F)F)c4)cc3)CC2)C1` (stereo partly drawn) [Compound 37, N-((4-(((R)-4-(1,4-oxazepan-4-yl)-1-(phenylthio)butan-2-yl)amino)-3-((trifluoromethyl)sulfonyl)phenyl)sulfonyl)-4-(4-(((4R)-4′-chloro-4-(((3-(2-(2,6-dioxopiperidin-3-yl)-1-oxoisoindolin-5-yl)prop-2-yn-1-yl)(methyl)amino)methyl)-4-methyl-3,4,5,6-tetrahydro-[1,1′-biphenyl]-2-yl)methyl)piperazin-1-yl)benzamide], the EC50 in assay [1] was 1 to 10 nM; in assay [2], less than 1 nM; with WI-38 NC, more than 10000 nM.
In the case of `CC(C)N(CC#Cc1ccc2c(c1)CN(C1CCC(=O)NC1=O)C2=O)C[C@]1(C)CCC(c2ccc(Cl)cc2)=C(CN2CCN(c3ccc(C(=O)NS(=O)(=O)c4ccc(N[C@H](CCN5CCCOCC5)CSc5ccccc5)c(S(=O)(=O)C(F)(F)F)c4)cc3)CC2)C1` (stereo partly drawn) [Compound 38, N-((4-(((R)-4-(1,4-oxazepan-4-yl)-1-(phenylthio)butan-2-yl)amino)-3-((trifluoromethyl)sulfonyl)phenyl)sulfonyl)-4-(4-(((4R)-4′-chloro-4-(((3-(2-(2,6-dioxopiperidin-3-yl)-1-oxoisoindolin-5-yl)prop-2-yn-1-yl) (isopropyl)amino)methyl)-4-methyl-3,4,5,6-tetrahydro-[1,1′-biphenyl]-2-yl)methyl)piperazin-1-yl)benzamide], the EC50 in assay [1] is 1 to 10 nM; in assay [2] it was 1 to 10 nM; in the assay on WI-38 NC, more than 10000 nM.
`C[C@@]1(CN2CCN(CCC#Cc3ccc4c(c3)CN(C3CCC(=O)NC3=O)C4=O)CC2)CCC(c2ccc(Cl)cc2)=C(CN2CCN(c3ccc(C(=O)NS(=O)(=O)c4ccc(N[C@H](CCN5CCCOCC5)CSc5ccccc5)c(S(=O)(=O)C(F)(F)F)c4)cc3)CC2)C1` (stereo partly drawn) [Compound 40, N-((4-(((R)-4-(1,4-oxazepan-4-yl)-1-(phenylthio)butan-2-yl)amino)-3-((trifluoromethyl)sulfonyl)phenyl)sulfonyl)-4-(4-(((4R)-4′-chloro-4-((4-(4-(2-(2,6-dioxopiperidin-3-yl)-1-oxoisoindolin-5-yl)but-3-yn-1-yl)piperazin-1-yl)methyl)-4-methyl-3,4,5,6-tetrahydro-[1,1′-biphenyl]-2-yl)methyl)piperazin-1-yl)benzamide]: the concentration for a half-maximal effect (EC50) in assay [1] is less than 1 nM; in assay [2] it was less than 1 nM; in the assay on WI-38 NC it was more than 10000 nM.
Regarding `C[C@@]1(CN2CC(CN3CCCN(c4ccc5c(c4)CN(C4CCC(=O)NC4=O)C5=O)CC3)C2)CCC(c2ccc(Cl)cc2)=C(CN2CCN(c3ccc(C(=O)NS(=O)(=O)c4ccc(N[C@H](CCN5CCCOCC5)CSc5ccccc5)c(S(=O)(=O)C(F)(F)F)c4)cc3)CC2)C1` (stereo partly drawn) [Compound 45, N-((4-(((R)-4-(1,4-oxazepan-4-yl)-1-(phenylthio)butan-2-yl)amino)-3-((trifluoromethyl)sulfonyl)phenyl)sulfonyl)-4-(4-(((4R)-4′-chloro-4-((3-((4-(2-(2,6-dioxopiperidin-3-yl)-1-oxoisoindolin-5-yl)-1,4-diazepan-1-yl)methyl)azetidin-1-yl)methyl)-4-methyl-3,4,5,6-tetrahydro-[1,1′-biphenyl]-2-yl)methyl)piperazin-1-yl)benzamide], the concentration for a half-maximal effect (EC50) in assay [1] and in assay [2] was 1 to 10 nM in each case. For the same compound, in the assay with WI-38 NC, the “Senolytic Activity EC50 (72 hr), WI-38 NC” value was “++ (100-10 μM)”.
Turning to `C[C@@]1(CN2CCC(CN3CCN(c4ccc(C(=O)N[C@H]5CCC(=O)NC5=O)cc4)CC3)CC2)CCC(c2ccc(Cl)cc2)=C(CN2CCN(c3ccc(C(=O)NS(=O)(=O)c4ccc(N[C@H](CCN5CCCOCC5)CSc5ccccc5)c(S(=O)(=O)C(F)(F)F)c4)cc3)CC2)C1` [Compound 139, N-((4-(((R)-4-(1,4-oxazepan-4-yl)-1-(phenylthio)butan-2-yl)amino)-3-((trifluoromethyl)sulfonyl)phenyl)sulfonyl)-4-(4-(((R)-4′-chloro-4-((4-((4-(4-(((S)-2,6-dioxopiperidin-3-yl)carbamoyl)phenyl)piperazin-1-yl)methyl)piperidin-1-yl)methyl)-4-methyl-3,4,5,6-tetrahydro-[1,1′-biphenyl]-2-yl)methyl)piperazin-1-yl)benzamide], the 50% effective concentration (EC50) in assay [1] and in assay [2] was 1 to 10 nM in each case.
Take `C[C@@]1(CN2CCN(c3ccc(NC4CCC(=O)NC4=O)cc3F)CC2)CCC(c2ccc(Cl)cc2)=C(CN2CCN(c3ccc(C(=O)NS(=O)(=O)c4ccc(N[C@H](CCN5CCCOCC5)CSc5ccccc5)c(S(=O)(=O)C(F)(F)F)c4)cc3)CC2)C1` (stereo partly drawn) [Compound 140, N-((4-(((R)-4-(1,4-oxazepan-4-yl)-1-(phenylthio)butan-2-yl)amino)-3-((trifluoromethyl)sulfonyl)phenyl)sulfonyl)-4-(4-(((4R)-4′-chloro-4-((4-(4-((2,6-dioxopiperidin-3-yl)amino)-2-fluorophenyl)piperazin-1-yl)methyl)-4-methyl-3,4,5,6-tetrahydro-[1,1′-biphenyl]-2-yl)methyl)piperazin-1-yl)benzamide]: the results for the EC50 in assay [1] and in assay [2] were 10 to 100 nM and 1 to 10 nM, respectively.

One may read the EC50 as the concentration at which the effect is half-maximal.

Values taken from patent US20260355323A1, “CEREBLON-RECRUITING BCL-XL/BCL-2 DUAL DEGRADERS” (University of Florida Research Foundation, Incorporated, priority 2022, published 2026).
